From patent US4455290A, “Inhibition of fibrin polymerization by a peptide isolated from fibrin Fragment D1” (Research Corporation, priority 1981, dated 1984)
Peptide text beside a SMILES is read from it.

Key:
Fragment D1 = biological target: T1, Fragment D1 (Homo sapiens, UniProt P02671+P02675+P02679); assay: Equilibrium binding of 125-I D1 Peptide, Fragment D1
T1 construct: consisted of three polypeptide chains of different molecular weights: /α/, 12,000; /β, 43,000; and /γ, 39,000; made in house; host or cells: not recombinant: plasmin (plasminogen + streptokinase) digest of human fibrinogen in calcium, then gel filtration
T1 sequence (P02671 124-225 limits assumed): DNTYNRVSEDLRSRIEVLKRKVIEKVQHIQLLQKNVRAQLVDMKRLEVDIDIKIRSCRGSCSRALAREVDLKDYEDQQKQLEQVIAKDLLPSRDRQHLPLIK
T1 sequence (P02675 164-491 limits assumed): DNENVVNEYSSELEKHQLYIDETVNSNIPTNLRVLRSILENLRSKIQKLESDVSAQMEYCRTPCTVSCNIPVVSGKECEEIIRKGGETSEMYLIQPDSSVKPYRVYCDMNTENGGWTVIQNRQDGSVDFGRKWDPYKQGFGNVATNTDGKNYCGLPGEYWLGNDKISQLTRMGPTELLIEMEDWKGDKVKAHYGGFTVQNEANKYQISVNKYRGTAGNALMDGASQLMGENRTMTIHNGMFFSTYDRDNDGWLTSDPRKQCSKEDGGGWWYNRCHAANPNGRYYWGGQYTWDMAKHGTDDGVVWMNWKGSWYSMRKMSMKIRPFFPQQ
T1 sequence (P02679 89-437 isoform P02679-2 limits assumed): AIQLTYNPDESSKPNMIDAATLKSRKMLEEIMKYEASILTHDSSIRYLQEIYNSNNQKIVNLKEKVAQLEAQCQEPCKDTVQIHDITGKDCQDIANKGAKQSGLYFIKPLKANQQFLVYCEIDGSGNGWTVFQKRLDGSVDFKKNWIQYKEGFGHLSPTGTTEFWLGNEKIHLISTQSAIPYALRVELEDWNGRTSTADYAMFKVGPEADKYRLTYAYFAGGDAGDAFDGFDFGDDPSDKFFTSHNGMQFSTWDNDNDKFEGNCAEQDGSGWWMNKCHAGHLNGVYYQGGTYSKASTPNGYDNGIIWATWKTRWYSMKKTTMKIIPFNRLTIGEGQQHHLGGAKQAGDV
From the text: Acta 133, 376-379 (1979).

fibrinogen = biological target: T2, fibrinogen (Homo sapiens, UniProt P02671+P02675+P02679); assay: Delay of onset of fibrin polymerization, fibrinogen in the presence of thrombin; format: biochemical; details: 1:1 ratio of D1 Peptide to fibrinogen in the presence of thrombin
T2 sequence (P02671 36-629 isoform P02671-2): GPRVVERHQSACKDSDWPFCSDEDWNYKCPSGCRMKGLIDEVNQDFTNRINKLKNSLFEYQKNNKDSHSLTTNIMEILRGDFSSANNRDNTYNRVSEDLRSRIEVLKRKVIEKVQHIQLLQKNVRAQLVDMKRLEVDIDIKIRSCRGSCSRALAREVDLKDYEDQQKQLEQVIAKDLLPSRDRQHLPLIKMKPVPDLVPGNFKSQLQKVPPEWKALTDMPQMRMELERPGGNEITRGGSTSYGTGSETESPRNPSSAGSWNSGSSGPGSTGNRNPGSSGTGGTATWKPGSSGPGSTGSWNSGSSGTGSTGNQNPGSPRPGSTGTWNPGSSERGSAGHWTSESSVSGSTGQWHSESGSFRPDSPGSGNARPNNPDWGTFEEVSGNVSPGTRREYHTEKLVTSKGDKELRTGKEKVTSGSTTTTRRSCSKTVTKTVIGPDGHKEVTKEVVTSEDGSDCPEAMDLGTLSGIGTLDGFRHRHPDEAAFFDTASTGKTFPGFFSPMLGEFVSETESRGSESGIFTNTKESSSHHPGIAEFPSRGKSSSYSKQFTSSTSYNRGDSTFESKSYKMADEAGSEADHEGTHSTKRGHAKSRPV
T2 sequence (P02675 45-491): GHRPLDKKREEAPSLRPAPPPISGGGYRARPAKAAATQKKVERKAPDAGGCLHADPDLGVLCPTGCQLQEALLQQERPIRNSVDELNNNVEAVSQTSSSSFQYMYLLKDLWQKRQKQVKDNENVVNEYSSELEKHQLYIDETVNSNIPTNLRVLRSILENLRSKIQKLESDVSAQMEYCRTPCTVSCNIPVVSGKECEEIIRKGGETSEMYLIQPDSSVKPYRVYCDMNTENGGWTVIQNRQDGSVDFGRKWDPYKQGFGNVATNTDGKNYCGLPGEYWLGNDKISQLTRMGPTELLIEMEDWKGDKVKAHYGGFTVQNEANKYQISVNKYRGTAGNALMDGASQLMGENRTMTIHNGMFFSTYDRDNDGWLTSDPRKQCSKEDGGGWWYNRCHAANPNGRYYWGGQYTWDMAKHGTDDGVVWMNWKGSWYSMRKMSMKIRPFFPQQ
T2 sequence (P02679 27-437 isoform P02679-2): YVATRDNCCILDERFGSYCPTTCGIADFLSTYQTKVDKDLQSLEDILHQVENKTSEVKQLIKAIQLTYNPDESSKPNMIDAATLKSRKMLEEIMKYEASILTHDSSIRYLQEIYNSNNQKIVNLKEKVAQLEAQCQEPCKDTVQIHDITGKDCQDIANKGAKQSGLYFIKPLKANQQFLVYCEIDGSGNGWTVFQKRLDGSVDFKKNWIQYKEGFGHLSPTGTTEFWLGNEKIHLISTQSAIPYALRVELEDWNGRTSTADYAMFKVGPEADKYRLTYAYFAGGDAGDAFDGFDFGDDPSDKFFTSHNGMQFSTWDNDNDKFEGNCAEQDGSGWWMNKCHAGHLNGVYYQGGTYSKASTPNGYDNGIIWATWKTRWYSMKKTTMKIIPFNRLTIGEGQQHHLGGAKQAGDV

[1] = biological target: T3, thrombin-treated NH2-terminal disulfide knot (NDSK) (Homo sapiens, UniProt P02671+P02675+P02679); assay: Equilibrium binding of 125-I D1 Peptide (equilibrium dialysis / Sephadex gel equilibrium), thrombin-treated NDSK
T3 sequence (P02671 36-70 limits assumed): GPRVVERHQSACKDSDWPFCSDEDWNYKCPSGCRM
T3 sequence (P02675 45-148 limits assumed): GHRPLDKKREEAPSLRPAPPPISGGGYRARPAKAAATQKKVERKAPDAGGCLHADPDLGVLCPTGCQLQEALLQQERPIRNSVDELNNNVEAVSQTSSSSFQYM
T3 sequence (P02679 27-453): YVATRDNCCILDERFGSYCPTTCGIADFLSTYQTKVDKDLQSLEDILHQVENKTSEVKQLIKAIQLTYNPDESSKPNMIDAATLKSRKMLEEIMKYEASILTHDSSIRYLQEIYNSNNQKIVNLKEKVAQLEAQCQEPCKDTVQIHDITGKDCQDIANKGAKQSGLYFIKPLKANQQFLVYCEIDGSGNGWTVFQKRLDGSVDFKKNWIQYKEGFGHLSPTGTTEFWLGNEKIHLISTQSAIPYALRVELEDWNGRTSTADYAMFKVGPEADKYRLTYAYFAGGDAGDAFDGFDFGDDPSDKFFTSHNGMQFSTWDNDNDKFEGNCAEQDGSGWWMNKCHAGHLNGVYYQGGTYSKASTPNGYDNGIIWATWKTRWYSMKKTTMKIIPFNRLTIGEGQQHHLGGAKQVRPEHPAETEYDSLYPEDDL

## CC[C@H](C)[C@H](NC(=O)[C@H](CCCCN)NC(=O)[C@H](CCSC)NC(=O)[C@@H](NC(=O)[C@@H](NC(=O)[C@H](CCCCN)NC(=O)[C@H](CCCCN)NC(=O)[C@H](CCSC)NC(=O)[C@H](CO)NC(=O)[C@H](Cc1ccc(O)cc1)NC(=O)[C@H](Cc1c[nH]c2ccccc12)NC(=O)[C@H](CCCNC(=N)N)NC(=O)[C@@H](N)[C@@H](C)O)[C@@H](C)O)[C@@H](C)O)C(=O)N[C@H](C(=O)N1CCC[C@H]1C(=O)N[C@@H](Cc1ccccc1)C(=O)N[C@@H](CC(N)=O)C(=O)N[C@@H](CCCNC(=N)N)C(=O)N[C@@H](CC(C)C)C(=O)N[C@H](C(=O)N[C@H](C(=O)NCC(=O)N[C@@H](CCC(=O)O)C(=O)NCC(=O)N[C@@H](CCC(N)=O)C(=O)N[C@@H](CCC(N)=O)C(=O)N[C@@H](Cc1c[nH]cn1)C(=O)N[C@@H](Cc1c[nH]cn1)C(=O)N[C@@H](CC(C)C)C(=O)NCC(=O)NCC(=O)N[C@@H](C)C(=O)N[C@@H](CCCCN)C(=O)N[C@@H](CCC(N)=O)C(=O)N[C@@H](C)C(=O)NCC(=O)N[C@@H](CC(=O)O)C(=O)N[C@H](C(=O)O)C(C)C)[C@@H](C)CC)[C@@H](C)O)[C@@H](C)CC [D1 Peptide] (H-TRWYSMKKTTMKIIPFNRLTIGEGQQHHLGGAKQAGDV-OH)
Fragment D1
  binding to Fragment D1: no measurable binding
fibrinogen
  delay of the onset of fibrin polymerization: 8 min
[1]; Scatchard analysis (FIG. 6)
  number of binding sites on thrombin-treated NDSK: approximately 2.1
[1]; plot of 1/free ligand vs. total NDSK/bound protein
  n (number of binding sites): 2.2
